These results are taken from ChEMBL document CHEMBL4196183, “Discovery of New Allosteric Modulators of the Urotensinergic System through Substitution of the Urotensin II-Related Peptide (URP) Phenylalanine Residue” (J Med Chem, 2018).

The target in experiment [1] is T1, Urotensin-2 receptor (Rattus norvegicus) (UniProt P49684).
T1 sequence (whole entry): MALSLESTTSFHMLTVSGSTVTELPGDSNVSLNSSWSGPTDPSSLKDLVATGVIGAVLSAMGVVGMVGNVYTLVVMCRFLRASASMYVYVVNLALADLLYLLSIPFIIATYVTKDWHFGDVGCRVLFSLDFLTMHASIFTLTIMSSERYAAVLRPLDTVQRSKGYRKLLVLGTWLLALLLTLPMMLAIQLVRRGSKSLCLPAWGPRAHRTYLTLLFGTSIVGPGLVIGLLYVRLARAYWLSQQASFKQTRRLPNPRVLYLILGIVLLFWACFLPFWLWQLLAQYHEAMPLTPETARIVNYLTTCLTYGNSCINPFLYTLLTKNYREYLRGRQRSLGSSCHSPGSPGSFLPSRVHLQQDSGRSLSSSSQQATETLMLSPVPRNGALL
The experiment in a line: Antagonist activity at UT receptor in Sprague-Dawley rat thoracic aortic ring assessed as reduction in URP-induced contraction by measuring Emax for […] at 1 uM pre-incubated for 30 mins […] relative to KCl-induced contraction (reference value: 107 +/- 3%). Format: functional.

Experiment [2] has as its target T2, Urotensin-2 receptor (Homo sapiens) (UniProt Q9UKP6).
T2 sequence (whole entry): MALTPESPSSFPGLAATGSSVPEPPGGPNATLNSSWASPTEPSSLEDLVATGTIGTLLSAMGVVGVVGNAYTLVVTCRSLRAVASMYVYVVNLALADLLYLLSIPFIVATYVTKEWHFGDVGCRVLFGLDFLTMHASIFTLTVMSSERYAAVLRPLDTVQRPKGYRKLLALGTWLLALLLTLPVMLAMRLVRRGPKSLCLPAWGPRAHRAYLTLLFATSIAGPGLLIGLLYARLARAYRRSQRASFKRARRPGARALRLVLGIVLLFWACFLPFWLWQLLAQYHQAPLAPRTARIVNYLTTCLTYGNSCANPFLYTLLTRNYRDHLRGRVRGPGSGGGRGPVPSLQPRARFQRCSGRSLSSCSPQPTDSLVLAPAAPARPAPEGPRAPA
The experiment in a line: Agonist activity at human UT receptor expressed in HEK293 cells co-expressing G12-polycistronic BRET biosensor assessed as induction of G12 activation measured for 5 mins by luminescence detection based BRET assay relative to 10 uM URP. Format: functional, cell-based.

Experiment [3] deals with T2, Urotensin-2 receptor (Homo sapiens). The experiment in a line: Bias factor, ratio of deltalog(Tau/KA) for agonist activity at human UT receptor expressed in HEK293 cells co-expressing Gq-polycistronic BRET biosensor assessed as induction of Gq activation by luminescence detection based BRET assay to deltalog(Tau/KA) for agonist activity at human UT receptor expressed in HEK293 cells co-expressing beta-arrestin1-polycistronic BRET biosensor assessed as induction of beta-arrestin1 recruitment by luminescence detection based BRET assay. It is filed as functional, cell-based.

For experiment [4] the target is unchanged. Nature of the experiment: Bias factor, ratio of deltalog(Tau/KA) for agonist activity at human UT receptor expressed in HEK293 cells co-expressing G12-polycistronic BRET biosensor assessed as induction of G12 activation by luminescence detection based BRET assay to deltalog(Tau/KA) for agonist activity at human UT receptor expressed in HEK293 cells co-expressing Gq-polycistronic BRET biosensor assessed as induction of Gq activation by luminescence detection based BRET assay. Format: functional, cell-based. Background: BRET reads energy transfer from a luciferase to a nearby fluorophore.

The target is the same in experiment [5]. Nature of the experiment: Bias factor, ratio of deltalog(Tau/KA) for agonist activity at human UT receptor expressed in HEK293 cells co-expressing Gq-polycistronic BRET biosensor assessed as induction of Gq activation by luminescence detection based BRET assay to deltalog(Tau/KA) for agonist activity at human UT receptor expressed in HEK293 cells co-expressing G12-polycistronic BRET biosensor assessed as induction of G12 activation by luminescence detection based BRET assay. Format: functional, cell-based.

Experiment [6] has the same target. The experiment in a line: Agonist activity at human UT receptor expressed in HEK293 cells co-expressing Gq-polycistronic BRET biosensor assessed as induction of Gq activation measured for 5 mins by luminescence detection based BRET assay relative to 10 uM URP. It is filed as functional, cell-based.
Experiment [7] has the same target. Nature of the experiment: Bias factor, ratio of deltalog(Tau/KA) for agonist activity at human UT receptor expressed in HEK293 cells co-expressing beta-arrestin1-polycistronic BRET biosensor assessed as induction of beta-arrestin1 recruitment by luminescence detection based BRET assay to deltalog(Tau/KA) for agonist activity at human UT receptor expressed in HEK293 cells co-expressing G12-polycistronic BRET biosensor assessed as induction of G12 activation by luminescence detection based BRET assay. It is filed as functional, cell-based.

The target is the same in experiment [8]. Nature of the experiment: Agonist activity at human UT receptor expressed in HEK293 cells co-expressing beta-arrestin1-polycistronic BRET biosensor assessed as induction of beta-arrestin1 recruitment measured for 5 mins by luminescence detection based BRET assay relative to 10 uM URP. It is filed as functional, cell-based.
Experiment [9] addresses T1, Urotensin-2 receptor (Rattus norvegicus). Nature of the experiment: Antagonist activity at UT receptor in Sprague-Dawley rat thoracic aortic ring assessed as reduction in urotensin-2-induced contraction by measuring Emax for human urotensin-2-induced contraction at 1 uM pre-incubated for 30 mins before urotensin-2 stimulation relative to KCl-induced contraction (reference value: 101 +/- 4%). It is filed as functional.

Experiment [10] addresses T2, Urotensin-2 receptor (Homo sapiens). The experiment in a line: Selectivity index, change in deltalog(Tau/KA) for agonist activity at human UT receptor expressed in HEK293 cells co-expressing Gq-polycistronic BRET biosensor assessed as induction of Gq activation by luminescence detection based BRET assay to deltalog(Tau/KA) for agonist activity at human UT receptor expressed in HEK293 cells co-expressing beta-arrestin1-polycistronic BRET biosensor assessed as induction of beta-arrestin1 recruitment by luminescence detection based BRET assay. Format: functional, cell-based.

For experiment [11] the target is unchanged. Nature of the experiment: Selectivity index, change in deltalog(Tau/KA) for agonist activity at human UT receptor expressed in HEK293 cells co-expressing beta-arrestin1-polycistronic BRET biosensor assessed as induction of beta-arrestin1 recruitment by luminescence detection based BRET assay to deltalog(Tau/KA) for agonist activity at human UT receptor expressed in HEK293 cells co-expressing G12-polycistronic BRET biosensor assessed as induction of G12 activation by luminescence detection based BRET assay to. It is filed as functional, cell-based.

In experiment [12] the target is T1, Urotensin-2 receptor (Rattus norvegicus). The experiment in a line: Agonist activity at UT receptor in Sprague-Dawley rat thoracic aortic ring assessed as induction of contraction relative to KCl-induced contraction. Format: functional.
The target of experiment [13] is T2, Urotensin-2 receptor (Homo sapiens). The experiment in a line: Bias factor, ratio of deltalog(Tau/KA) for agonist activity at human UT receptor expressed in HEK293 cells co-expressing beta-arrestin1-polycistronic BRET biosensor assessed as induction of beta-arrestin1 recruitment by luminescence detection based BRET assay to deltalog(Tau/KA) for agonist activity at human UT receptor expressed in HEK293 cells co-expressing Gq-polycistronic BRET biosensor assessed as induction of Gq activation by luminescence detection based BRET assay. Format: functional, cell-based.

Experiment [14] shares this target. The experiment in a line: Bias factor, ratio of deltalog(Tau/KA) for agonist activity at human UT receptor expressed in HEK293 cells co-expressing G12-polycistronic BRET biosensor assessed as induction of G12 activation by luminescence detection based BRET assay to deltalog(Tau/KA) for agonist activity at human UT receptor expressed in HEK293 cells co-expressing beta-arrestin1-polycistronic BRET biosensor assessed as induction of beta-arrestin1 recruitment by luminescence detection based BRET assay. Format: functional, cell-based.

Experiment [15] has the same target. The experiment in a line: Selectivity index, change in deltalog(Tau/KA) for agonist activity at human UT receptor expressed in HEK293 cells co-expressing G12-polycistronic BRET biosensor assessed as induction of G12 activation by luminescence detection based BRET assay to deltalog(Tau/KA) for agonist activity at human UT receptor expressed in HEK293 cells co-expressing Gq-polycistronic BRET biosensor assessed as induction of Gq activation by luminescence detection based BRET assay. It is filed as functional, cell-based.

The target of experiment [16] is T1, Urotensin-2 receptor (Rattus norvegicus). The experiment in a line: Agonist activity at UT receptor in Sprague-Dawley rat thoracic aortic ring assessed as induction of contraction at 10^-5M relative to KCl-induced contraction. Format: functional.

For orientation: Emax means the greatest response seen or fitted, relative to the assay's reference. As to `CC(C)[C@H](NC(=O)[C@@H]1CSSC[C@H](NC(=O)[C@@H](C)N)C(=O)N[C@@H](Cc2ccc(-c3ccccc3)cc2)C(=O)N[C@@H](Cc2c[nH]c3ccccc23)C(=O)N[C@@H](CCCCN)C(=O)N[C@@H](Cc2ccc(O)cc2)C(=O)N1)C(=O)O`, the Emax was found to be 91% in experiment [1]; 74% in [2]; 102% in [6]; 60% in experiment [8]; 95% in experiment [9]; 10% in [12]. In addition, the fold change (FC) was determined as 0.1 in experiment [3]; 50 in experiment [4]; 0 in experiment [5]; 0.3 in experiment [7]; 14.4 in [13]; 3.5 in experiment [14]. The selectivity index, deltadeltalog(Tau/KA) in [10] is -1.16. Also, in [11], the deltadeltalog(Tau/KA) (beta-arrestin1 selectivity index) is -0.54. In experiment [15], the deltalog(Tau/KA) stood at 1.7.
As to `CC(C)[C@H](NC(=O)[C@@H]1CSSC[C@H](NC(=O)[C@H](N)CC(=O)O)C(=O)N[C@@H](Cc2ccc(I)cc2)C(=O)N[C@@H](Cc2c[nH]c3ccccc23)C(=O)N[C@@H](CCCCN)C(=O)N[C@@H](Cc2ccc(O)cc2)C(=O)N1)C(=O)O`, the Emax in experiment [1] stood at 107%; in experiment [2] it was 91%; in experiment [16] it was 49%; in experiment [6], 91%; in [8], 97%; in [9] it was 95%. The fold change (FC) was 0.2 in [3]; 4.3 in experiment [4]; 0.2 in [5]; 1.2 in experiment [7]; 5.3 in [13]; 0.8 in experiment [14]. Moreover, the selectivity index, deltadeltalog(Tau/KA) in [10] is -0.73. Further, the deltadeltalog(Tau/KA) (beta-arrestin1 selectivity index) in experiment [11] was 0.09. The deltalog(Tau/KA) in experiment [15] worked out at 0.64.
Consider `CC(C)[C@H](NC(=O)[C@@H]1CSSC[C@H](NC(=O)[C@@H](C)N)C(=O)N[C@@H](Cc2ccc(C#Cc3ccccc3)cc2)C(=O)N[C@@H](Cc2c[nH]c3ccccc23)C(=O)N[C@@H](CCCCN)C(=O)N[C@@H](Cc2ccc(O)cc2)C(=O)N1)C(=O)O`, for which the Emax in [1] came out at 104%; in [2] it was 72%; in experiment [6] it was 101%; in experiment [8], 36%; in [9], 100%; in experiment [12], 8%. Further, the fold change (FC) in experiment [3] came out at 0.5; in [4] it was 12.1; in [5], 0.1; in experiment [7] it was 0.2; in experiment [13], 2.2; in experiment [14], 5.6. In addition, in experiment [10], the selectivity index, deltadeltalog(Tau/KA) is -0.34. The deltadeltalog(Tau/KA) (beta-arrestin1 selectivity index) in experiment [11] is -0.75. Besides, in experiment [15], the deltalog(Tau/KA) turned out to be 1.08.
Regarding `CC(C)[C@H](NC(=O)[C@@H]1CSSC[C@H](NC(=O)[C@@H](C)N)C(=O)N[C@@H](Cc2ccc(I)cc2)C(=O)N[C@@H](Cc2c[nH]c3ccccc23)C(=O)N[C@@H](CCCCN)C(=O)N[C@@H](Cc2ccc(O)cc2)C(=O)N1)C(=O)O`, the Emax in experiment [1] is 100%; in experiment [2], 68%; in experiment [6], 87%; in [8], 99%; in experiment [9] it was 52%; in experiment [12], 20%. Also, the fold change (FC) in experiment [3] was 0.1; in [4] it was 7.8; in experiment [5], 0.1; in [7] it was 1.1; in experiment [13] it was 8.6; in [14], 0.9. The selectivity index, deltadeltalog(Tau/KA) in [10] was -0.94. Besides, in experiment [11], the deltadeltalog(Tau/KA) (beta-arrestin1 selectivity index) stood at 0.04. Also, the deltalog(Tau/KA) in experiment [15] amounted to 0.89.
